Source: article PMC6600574 (Molecules, 2019)
“Also recorded” adds a separate entry of the source.

Assays:
CYP2D6 = target: T1, CYP2D6 (Homo sapiens, UniProt P10635); assay: Inhibition of recombinant CYP oxidation (fluorescent coumarin substrate); format: in vitro ADME; details: read-out: Recombinant CYP IC50 (µM) with 95% confidence intervals
T1 construct: purchased BD Biosciences Discovery Labware (Bedford, MA, USA)
Experimental: (§1) Incubations were carried out in a total volume of 100 µl of 100 mM Tris-HCl buffer (pH 7.4) in all black, flat-bottom Costar 96-well plates (Corning Incorporated, Corning, NY, USA). […] The samples were then preincubated at 37 °C for 10 min. The reactions were initiated by the addition of NADPH, and 0–10 µM 7-hydroxycoumarin was used as the standard. The fluorescent signal was measured with a Victor^2 1420 multilabel plate counter (PerkinElmer Lifesciences Wallac, Turku, Finland) with excitation and emission wavelengths of 405 and 460 nm, respectively. Fluorescence was monitored every 2 min for 40 min from where the concentration was calculated at the various time points. From these, oxidation rates (µM/min) and the relative remaining activity of the sample at different concentrations were calculated. The data were fit to sigmoidal dose-response curves with nonlinear regression, and IC50 values (the concentration at which the sample reduced the metabolism of the CYP substrate by 50%) were determined. […] This was analyzed using nonlinear equations in Graph Pad Prism, which produced IC50 values and its 95% confidence interval as the results.

CYP1A2 = target: T2, CYP1A2 (Homo sapiens, UniProt P05177); assay: as above; format: in vitro ADME; details: read-out: Recombinant CYP IC50 (µM) with 95% confidence intervals
T2 construct: purchased BD Biosciences Discovery Labware (Bedford, MA, USA)
Experimental: as §1

recombinant CYP 2A6 = target: T3, recombinant CYP 2A6 (Homo sapiens, UniProt P11509); assay: as above; format: in vitro ADME; details: CYP 2A6, substrate coumarin, 5 nM recombinant CYP, verbascoside 0.4-50 µM
T3 construct: purchased BD Biosciences Discovery Labware (Bedford, MA, USA)
T3 sequence (P11509 1-494): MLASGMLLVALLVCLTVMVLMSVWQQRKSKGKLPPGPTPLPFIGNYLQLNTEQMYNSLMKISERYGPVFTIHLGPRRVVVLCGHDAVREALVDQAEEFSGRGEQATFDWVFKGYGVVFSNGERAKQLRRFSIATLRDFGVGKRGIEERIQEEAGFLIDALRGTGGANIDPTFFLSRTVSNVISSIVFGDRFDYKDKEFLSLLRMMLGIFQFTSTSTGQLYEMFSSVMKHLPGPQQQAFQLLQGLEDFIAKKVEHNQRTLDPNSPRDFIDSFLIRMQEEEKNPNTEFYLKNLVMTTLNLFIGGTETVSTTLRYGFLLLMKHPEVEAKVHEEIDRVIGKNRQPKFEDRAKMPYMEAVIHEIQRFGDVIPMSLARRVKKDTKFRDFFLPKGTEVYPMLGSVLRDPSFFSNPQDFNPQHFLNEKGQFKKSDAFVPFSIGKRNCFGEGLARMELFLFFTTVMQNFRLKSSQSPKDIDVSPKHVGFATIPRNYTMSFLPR
Experimental: as §1

CYP3A4 = target: T4, CYP3A4 (Homo sapiens, UniProt P08684); assay: as above; format: in vitro ADME; details: read-out: Recombinant CYP IC50 (µM) with 95% confidence intervals
T4 construct: purchased BD Biosciences Discovery Labware (Bedford, MA, USA)
Experimental: as §1

recombinant CYP 2C19 = target: T5, recombinant CYP 2C19 (Homo sapiens, UniProt P33261); assay: as above; format: in vitro ADME; details: CYP 2C19, substrate TFD032, 5 nM recombinant CYP, verbascoside 0.4-50 µM
T5 construct: purchased BD Biosciences Discovery Labware (Bedford, MA, USA)
Experimental: as §1

[1] = test system: CYP 1B1 (liver microsomes); assay: Inhibition of hepatic microsome-catalyzed CYP oxidation; format: in vitro ADME, human; details: CYP 1B1, substrate TFD008_1, liver microsomes
Experimental: as §1

[2] = target: T6, CYP 1A1 (placental microsomes) (Homo sapiens, UniProt P04798); assay: Inhibition of placental microsome-catalyzed CYP oxidation; format: in vitro ADME; details: CYP 1A1, substrate TFD024, placental microsomes
T6 construct: from tissue; host or cells: human placental microsomes
T6 sequence (P04798 1-512): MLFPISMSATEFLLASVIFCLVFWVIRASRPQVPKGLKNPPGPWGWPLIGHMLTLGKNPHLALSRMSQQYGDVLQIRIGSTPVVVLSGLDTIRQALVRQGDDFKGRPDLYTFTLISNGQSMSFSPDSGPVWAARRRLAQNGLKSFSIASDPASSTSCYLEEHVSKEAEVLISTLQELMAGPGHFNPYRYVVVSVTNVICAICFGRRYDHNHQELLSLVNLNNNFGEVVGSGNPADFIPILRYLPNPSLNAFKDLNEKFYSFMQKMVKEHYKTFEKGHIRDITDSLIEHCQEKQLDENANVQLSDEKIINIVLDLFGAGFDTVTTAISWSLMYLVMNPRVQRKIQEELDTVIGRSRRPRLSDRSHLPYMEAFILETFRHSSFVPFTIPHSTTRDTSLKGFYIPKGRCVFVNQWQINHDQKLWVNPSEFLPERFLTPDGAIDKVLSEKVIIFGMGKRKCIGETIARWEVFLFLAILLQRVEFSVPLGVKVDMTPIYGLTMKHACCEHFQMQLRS
Experimental: as §1

[3] = DPPH radical scavenging assay; format: biochemical; details: DPPH in ethanol, 30 min
Experimental: Ascorbic acid was serially diluted to a concentration range of 0.78–100 µg/mL. Ethanol (10%) was used as a blank. Ninety microliters of a […] DPPH (2,2-diphenyl-1-picrylhydrazyl) in ethanol were added to each well. The plates were incubated for 30 min and covered in a layer of foil. Color controls (negative controls) were prepared in the exact same manner as above, but distilled water was added to each well instead of DPPH. The absorbances were measured at a wavelength of 515 nm using a BIO-TEK Power-Wave XS multiplate reader (BIO-TEK Instruments, Winooski, VT, USA). From the absorbances an IC50 value was determined.

T5 sequence (P33261 whole entry): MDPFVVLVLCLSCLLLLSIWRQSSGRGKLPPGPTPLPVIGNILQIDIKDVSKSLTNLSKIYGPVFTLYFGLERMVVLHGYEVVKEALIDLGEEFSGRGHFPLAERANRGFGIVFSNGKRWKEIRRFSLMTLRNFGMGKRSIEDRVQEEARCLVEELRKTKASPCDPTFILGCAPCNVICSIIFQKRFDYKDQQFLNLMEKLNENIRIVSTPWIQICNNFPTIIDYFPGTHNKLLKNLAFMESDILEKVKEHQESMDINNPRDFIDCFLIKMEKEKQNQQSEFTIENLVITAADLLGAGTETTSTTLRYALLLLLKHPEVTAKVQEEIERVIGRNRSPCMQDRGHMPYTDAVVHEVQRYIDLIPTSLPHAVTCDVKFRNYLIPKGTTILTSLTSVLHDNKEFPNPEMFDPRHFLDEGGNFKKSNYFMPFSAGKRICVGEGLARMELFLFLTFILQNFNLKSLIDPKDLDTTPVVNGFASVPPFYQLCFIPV
T2 sequence (P05177 whole entry): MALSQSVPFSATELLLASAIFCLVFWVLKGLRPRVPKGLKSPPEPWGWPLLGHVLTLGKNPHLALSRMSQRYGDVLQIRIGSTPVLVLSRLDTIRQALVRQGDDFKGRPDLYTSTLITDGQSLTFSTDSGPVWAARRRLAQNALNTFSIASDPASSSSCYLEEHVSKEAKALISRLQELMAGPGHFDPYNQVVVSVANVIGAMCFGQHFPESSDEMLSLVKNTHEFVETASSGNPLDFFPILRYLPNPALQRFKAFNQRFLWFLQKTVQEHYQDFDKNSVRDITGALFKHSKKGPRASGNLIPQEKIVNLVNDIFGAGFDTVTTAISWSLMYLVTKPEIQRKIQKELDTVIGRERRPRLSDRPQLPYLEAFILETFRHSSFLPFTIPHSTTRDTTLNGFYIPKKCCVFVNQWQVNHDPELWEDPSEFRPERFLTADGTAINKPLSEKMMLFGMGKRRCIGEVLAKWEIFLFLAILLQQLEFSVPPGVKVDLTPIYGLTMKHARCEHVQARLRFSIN
T4 sequence (P08684 whole entry): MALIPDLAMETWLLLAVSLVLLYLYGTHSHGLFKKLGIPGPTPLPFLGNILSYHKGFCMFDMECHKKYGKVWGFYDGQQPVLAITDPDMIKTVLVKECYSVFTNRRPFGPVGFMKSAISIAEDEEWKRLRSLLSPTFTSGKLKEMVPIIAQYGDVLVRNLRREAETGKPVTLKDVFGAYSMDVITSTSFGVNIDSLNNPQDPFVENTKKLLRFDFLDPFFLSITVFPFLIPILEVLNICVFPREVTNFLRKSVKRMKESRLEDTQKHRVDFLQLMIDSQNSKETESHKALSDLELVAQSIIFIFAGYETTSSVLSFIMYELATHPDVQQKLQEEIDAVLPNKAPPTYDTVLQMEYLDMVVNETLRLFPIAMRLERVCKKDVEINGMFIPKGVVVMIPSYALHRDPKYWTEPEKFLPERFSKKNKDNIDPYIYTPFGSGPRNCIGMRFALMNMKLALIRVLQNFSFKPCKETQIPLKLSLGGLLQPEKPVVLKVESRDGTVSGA
T1 sequence (P10635 whole entry): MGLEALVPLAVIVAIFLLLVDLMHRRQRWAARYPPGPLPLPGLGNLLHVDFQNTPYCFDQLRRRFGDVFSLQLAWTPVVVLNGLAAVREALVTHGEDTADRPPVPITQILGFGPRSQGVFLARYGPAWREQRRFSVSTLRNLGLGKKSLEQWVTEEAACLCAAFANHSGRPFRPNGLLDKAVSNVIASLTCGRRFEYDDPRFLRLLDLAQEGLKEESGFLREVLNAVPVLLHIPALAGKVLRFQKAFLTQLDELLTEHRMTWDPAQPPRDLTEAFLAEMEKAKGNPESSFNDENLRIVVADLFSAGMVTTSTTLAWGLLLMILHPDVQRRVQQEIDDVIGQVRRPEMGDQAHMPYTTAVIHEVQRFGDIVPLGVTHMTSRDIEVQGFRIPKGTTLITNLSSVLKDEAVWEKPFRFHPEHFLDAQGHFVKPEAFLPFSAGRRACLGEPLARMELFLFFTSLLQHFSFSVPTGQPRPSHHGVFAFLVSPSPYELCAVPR

- IC50 at 40 min (CYP2D6; human, recombinant CYP2D6, pH 7.4, probe TFD023 (3-(4-phenyl)-7-methoxycoumarin), 10 µM): > 50 µM
- IC50 (CYP2D6): 131 µM
- IC50 at 40 min (CYP1A2; human, recombinant CYP1A2, pH 7.4): > 50 µM
- IC50 (CYP1A2): 83 µM
- Recombinant CYP IC50 (µM) with 95% confidence intervals (recombinant CYP 2A6): No inhibition
- Recombinant CYP IC50 (µM) with 95% confidence intervals (recombinant CYP 2A6; listed as verbascoside): did not inhibit
- IC50 at 40 min (CYP3A4; human, recombinant CYP3A4, pH 7.4, probe OCA369 (3-(3-benzyloxo)phenyl-7-methoxycoumarin), 10 µM): > 50 µM
- IC50 (CYP3A4): 314 µM
- Recombinant CYP IC50 (µM) with 95% confidence intervals (recombinant CYP 2C19): Stimulation ^c
- Microsomal IC50 (µM) with 95% Confidence Intervals [1]: No inhibition ^b
- Microsomal IC50 (µM) with 95% Confidence Intervals [2]: did not inhibit
- IC50 ([2]; read-out: Microsomal IC50 (µM) with 95% Confidence Intervals): 350 µM
- IC50 [3]: 2.5 ± 0.02 µM
SMILES: C[C@@H]1O[C@@H](O[C@@H]2[C@@H](O)[C@H](OCCc3ccc(O)c(O)c3)O[C@H](CO)[C@H]2OC(=O)/C=C/c2ccc(O)c(O)c2)[C@H](O)[C@H](O)[C@H]1O [Verbascoside]
- Recombinant CYP IC50 (µM) with 95% confidence intervals (recombinant CYP 2C19; listed as verbascoside): did not inhibit; also recorded: weak ability to stimulate
